This note sets out measurements from a melting point compilation (Tetko et al.; mined from patent text by program, amines drawn as free bases though some values may be those of a salt).

For the compound `Cc1nc(Cl)c([N+](=O)[O-])c(NCC(C)(C)N)c1C`, the melting point (in general, the temperature of the solid-liquid transition) is 89 to 94 °C.

As to `COCCc1nc2c(N)nc3cc(-c4cccnc4)ccc3c2n1CC(C)(C)O`, the melting point is 158 to 160 °C.

For the compound `CC1=C(C)C2=NC(C)(C(C)C)C(=O)N2C1=O` (stereo not given), the melting point was 98 to 99 °C.

The compound `CCCCC(=O)OCC=C(C)CCC=C(C)CCC=C(C)CCC=C(C)CCC=C(C)CCC=C(C)CCC=C(C)CCC=C(C)CCC=C(C)C` registered a melting point of 34 to 35 °C.

Compound `c1ccc2c(c1)CC(CN1CCN(c3ccc4ccoc4c3)CC1)C2` displayed a melting point of 168 to 170 °C.

Turning to `O=[N+]([O-])c1ccc(CO)c([N+](=O)[O-])c1`, the melting point is 105 to 110 °C.

In turn, `COc1ccc(CC(=O)NC(NC(=NC#N)Nc2cc(C)ccc2C)C(C)(C)C)cc1OC` (stereo not given) displayed a melting point of 93 to 94 °C.

Compound `c1ccc2cc(Cc3ncc(-c4ccc5cc(OCc6nnn[nH]6)ccc5c4)o3)ccc2c1` displayed a melting point of 179 to 182 °C.

Turning to `NS(=O)(=O)c1cc(S(N)(=O)=O)c(C(Cl)=C(Cl)Cl)cc1NCc1ccccc1`, the melting point is 188 to 190 °C.

As to `Nc1nc(-c2ccc(NC(=O)CN(Cc3ccccc3)S(=O)(=O)N3CCOCC3)cc2)cs1`, the melting point lay in the range of 193 to 194 °C.

For the compound `N#CNC(=N)NCCc1c[nH]cn1`, the melting point was in the range of 152 to 154 °C.

For `CNC(=O)N(C)c1nnc(C(C)(C)CCl)s1`, the melting point lay in the range of 159 to 161 °C.

Compound `O=C(Nc1ccncc1)c1n[nH]c2ccc(-c3cncc4[nH]ccc34)cc12` had a melting point greater than 250 °C.

`C=C1CC2C(=O)C(c3c(CC)cc(C)cc3CC)=C(OCc3ccccc3)C2C1` (stereo not given): the melting point fell in the range of 87 to 88 °C.

In turn, `CCCc1ccccc1OCCCOc1ccc2c(=O)cc(C(N)=O)oc2c1` gave a melting point of 210 to 213 °C.

Regarding `COc1c(N)ccc2c1C(CCNC(C)=O)CC2` (stereo not given), the melting point lay in the range of 130 to 132 °C.

Consider `COc1ccc(OC)c2c(Nc3ccc(C)c(O)c3)c(C#N)cnc12`, for which the melting point is 240 to 242 °C.

`CCCSc1cscc1S(=O)(=O)NC(C)(C)C` displayed a melting point of 61 to 63 °C.

As for `COc1ccc(S(=O)(=O)Nc2ccccc2NC(=O)c2ccncc2C)cc1`, the melting point was 194 to 195 °C.

In the case of `O=C(NCC(=O)C(F)(F)F)c1cnc(OCC(F)(F)F)c(-c2ccc(Cl)c(Cl)c2)c1`, the melting point was 122 to 124 °C.

The compound `CN1N(c2ccccc2)C(=O)C(F)(F)C1(C)O` (stereo not given) displayed a melting point of 132 to 134 °C.

In the case of `CCCCCCCCC(=O)Oc1cc2c(s1)CCN(C(C(=O)C1CC1)c1ccccc1F)C2` (stereo not given), the melting point lay within 45 to 48 °C.

As to `CCN1CCCNC1=C[N+](=O)[O-]`, the melting point lay in the range of 126 to 127 °C.

The compound `CCOC(=O)n1nc(N(C)C)c2c(Cl)cccc21` had a melting point of 60 to 62 °C.

Regarding `COc1nc(N)nc(Cl)c1C1=NCCN1`, the melting point is 212 °C.

For `CNC1=NC2(O)c3ccc(OCC(F)(F)C(F)(F)C(F)(F)F)cc3CC2S1` (stereo not given), the melting point is 178 to 180 °C.

`CN1CCC(Cc2nc3ccccc3n2Cc2ccc(CO)o2)CC1` showed a melting point of 158 °C.

Consider `CC(=O)Nc1cccc(-n2cccc2)c1`, for which the melting point is 134 to 136 °C.

The compound `O=C(NCCCn1cncn1)c1ccc(Cl)c(Cl)c1` showed a melting point of 128 to 130 °C.

For the compound `O=C(CCCC1CCN(Cc2ccccc2)CC1)c1ccc(F)cc1`, the melting point fell in the range of 53 to 55 °C.

In the case of `Cc1cc(C)cc(C(=O)N2CCC(Oc3nc4ccccc4n3Cc3ccc(F)cc3)CC2Cc2ccccc2)c1` (stereo not given), the melting point is 154 °C.

As for `C#CCN(Cc1cc2c(=O)n(C)c(CN3CCN(CCO)CC3)nc2cc1Cl)c1ccc(C(=O)NCc2cccnc2)cc1`, the melting point lay within 115 to 117 °C.

The compound `CC(=O)N(C(C)=O)c1c(C#N)cnn1-c1c(F)c(F)c(C)c(F)c1F` displayed a melting point of 132 to 133 °C.

In the case of `CCOC(=O)COc1cc2c(c(Cl)c1Cl)C(=O)C(c1ccc(F)cc1)C2` (stereo not given), the melting point was 143 to 144 °C.

For the compound `COc1cc2c(cc1OC)C[C@@H](N1CCN(c3ccccc3OC)CC1)[C@H](O)C2` (relative stereo), the melting point lay in the range of 172 to 174 °C.
